Measurements published in patent publication EP4501917A1, “3,4-DIHYDROQUINOXALINE-2-CARBOXIMIDE DERIVATIVE COMPOUND AND PHARMACEUTICAL COMPOSITION COMPRISING SAME FOR PREVENTING OR TREATING CANCER DISEASE” (Daegu-Gyeongbuk Medical Innovation Foundation, priority 2022, dated 2023).

Assays:
HDAC8 [1] = biological target: T1, HDAC8 (Homo sapiens, UniProt Q9BY41); assay: HDAC8 inhibitory activity analysis (in vitro), RFU analysis, HDAC Fluorogenic assay kit; assay type: biochemical
T1 construct: purchased BPS bioscience
T1 sequence (Q9BY41 1-377): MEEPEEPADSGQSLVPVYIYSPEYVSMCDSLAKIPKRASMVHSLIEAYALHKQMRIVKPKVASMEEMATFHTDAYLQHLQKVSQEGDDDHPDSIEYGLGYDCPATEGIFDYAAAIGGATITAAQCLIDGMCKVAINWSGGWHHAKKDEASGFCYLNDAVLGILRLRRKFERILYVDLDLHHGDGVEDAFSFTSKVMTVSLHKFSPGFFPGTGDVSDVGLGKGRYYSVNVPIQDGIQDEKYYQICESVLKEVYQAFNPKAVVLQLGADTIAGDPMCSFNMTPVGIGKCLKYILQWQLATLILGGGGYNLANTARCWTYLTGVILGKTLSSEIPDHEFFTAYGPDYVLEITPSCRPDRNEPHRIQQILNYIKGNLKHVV
Procedure: The compound of the Example was diluted to 1 mM (1% DMSO concentration) using DMSO to obtain a final concentration of 10 µM, and prepared by diluting 1/10 with assay buffer. In a 96-well black round-bottom plate, 5 µL of the diluted compound of the Example, 5 µL of the diluted HDAC substrate 2A, 5 µL of BSA (1 mg/mL), 5 µL of the HDAC8 enzyme diluted to an appropriate concentration, and 30 µL of assay buffer were added, and the enzyme reaction was performed at 37°C for 30 minutes. […] Afterwards, 50 µL of 2X HDAC developer was added to each well. After reacting for 15 minutes at room temperature, the fluorescence values at excitation wavelengths of 350-380 nm and emission wavelengths of 440-460 nm were measured using a microplate reader (Synergy Neo).

HDAC8 [2] = biological target: T1, HDAC8; assay: Selective HDAC inhibition, HDAC Fluorogenic assay kit; assay type: biochemical
Procedure: (§3) For analysis, HDAC substrate 3 was diluted in buffer to a concentration of 200 µM and used in HDAC 1, 2, 3, 6, and 10 assays, HDAC substrate 2A was diluted in buffer to a concentration of 200 µM and used in HDAC 4, 7, 9, and 11 assays, HDAC substrate 2A was diluted in buffer to a concentration of 20 µM and used in HDAC 8 assays. For the HDAC 11 assay, a dedicated buffer included in the kit was used separately, and the same buffer was used for the remaining assays. The compound of the Example was diluted to 1 mM (1% DMSO concentration) using DMSO to obtain a final concentration of 10 µM, and prepared by diluting 1/10 with assay buffer. In a 96-well black round-bottom plate, 5 µL of the diluted compound of the Example, 5 µL of the diluted HDAC substrate, 5 µL of BSA (1 mg/ml), 5 µL of the HDAC enzyme diluted to the appropriate concentration, and 30 µL of assay buffer were added, and the enzyme reaction was performed at 37°C for 30 minutes. […] Afterwards, 50 µL of 2X HDAC developer was added to each well. After reacting for 15 minutes at room temperature, the fluorescence values at excitation wavelengths of 350-380 nm and emission wavelengths of 440-460 nm were measured using a microplate reader (Synergy Neo).

[3] = system: PC-3 prostate cancer cells; assay: Prostate cancer cell growth inhibition, CCK-8 assay; assay type: cell-based, human; conditions: PC-3 cells, result in words
Procedure: PC-3, a human-derived prostate cancer cell line, was cultured with RPMI1640 (10% fetal bovine serum, 1% Penicillin Streptomycin) culture medium at 37°C, 5% CO2 condition. All cells in the experiment were subcultured when they reached a confluency of approximately 80% to 90%, and only cells that had not passed 20 passages were used.
After culturing, 10 µL CCK-8 reagent was added and the absorbance was measured after 1 hour. The absorbance was measured at 450 nm using a microplate reader [BMG Labtech (Offenburg, Germany)].

Liver cancer cells Huh-7 = assay: Liver cancer cell growth inhibition, CellTiter-Glo Luminescent Cell Viability Assay; assay type: cell-based; conditions: Huh-7 cells, various concentrations, day 1, FIG. 6; result in words
Procedure: In addition, an analysis of liver cancer growth inhibitory activity was performed. Liver cancer cells Huh-7 cells were dispensed in a 96-well plate at 1 × 10^4 cells/ml, and after 20 hours, PCI34051, Example 27, and Example 35 were added at various concentrations, and cultured for 24 and 48 hours at 37°C in a 5% CO2 atmosphere. After culturing, 100 µl CellTiter-Glo Luminescent Cell Viability Assay reagent was added and the luminescence signal was measured after 0.5-1 hour. The luminescence signal was measured using IVIS [PerkinElmer, (Waltham, USA)].

PC-3 cell lines = assay: Prostate cancer model, PC-3 cell lines subcutaneously transplanted, tumor volume and weight; assay type: in vivo, nude mice; conditions: result in words
Procedure: (§1) A prostate cancer model was established by subcutaneously transplanting PC-3 cell lines into nude mice, and the mice were divided into two groups (group 1: vehicle administration group (10% DSMO, 30% PEG400, 60% DW), group 2: 50 mg/kg Example 27 compound administration group). The drug was administered orally once a day for 12 times. To evaluate the therapeutic efficacy, tumors were […] before drug administration and on days 3, 6, 8, 10, 12, and 14 after drug administration, and tumor volumes were measured. Tumor volume (mm^3) was calculated as follows (tumor volume (mm^3) = (A X B^2)/2, where A = tumor long axis, B = tumor short axis), and the results are shown in FIG. 2.
Meanwhile, on day 12 of drug administration, the tumor was removed and its weight was measured, the results are shown in FIG. 3, and a photograph of the removed tumor was taken and shown in FIG. 4.

[4] = Body weight during drug administration, prostate cancer model; assay type: in vivo, nude mice; conditions: 50 mg/kg, during the drug administration period, PC-3 model, FIG. 5; result in words
Procedure: as §1

Huh-7 cell lines = assay: Liver cancer model, Huh-7 cell lines subcutaneously transplanted, tumor volume and weight; assay type: in vivo, nude mice; conditions: result in words
Procedure: (§2) In addition, a liver cancer model was established by subcutaneously transplanting Huh-7 cell lines into nude mice. After establishing the liver cancer model, the mice were divided into two groups (group 1: vehicle administration group, group 2: 50 mg/kg Example 27 compound administration group). The drug was administered once a day for 12 times. To evaluate therapeutic efficacy, tumor volume was measured before drug administration and on days 4, 7, 10, 13, and 15 after drug administration. Tumor volume (mm^3) was calculated as follows (tumor volume (mm^3) = (A X B^2)/2, where A = tumor long axis, B = tumor short axis). Body weight was measured before administration and on days 4, 7, 10, 13, and 15 after drug administration during the drug administration period. Tumor was excised on day 15 after drug treatment and body weight was measured.

[5] = Body weight during drug administration, liver cancer model; assay type: in vivo, nude mice; conditions: 50 mg/kg, during the drug administration period, Huh-7 model, FIG. 7D; result in words
Procedure: as §2

HDAC4 = HDAC4 (Homo sapiens, UniProt P56524); assay: Selective HDAC inhibition, HDAC Fluorogenic assay kit; conditions: read-out: HDAC4 enzyme activity (%)
Procedure: as §3

HDAC9 = HDAC9 (Homo sapiens, UniProt Q9UKV0); assay: as above; conditions: read-out: HDAC9 enzyme activity (%)
Procedure: as §3

HDAC11 = biological target: T2, HDAC11 (Homo sapiens, UniProt Q96DB2); assay: as above; conditions: read-out: HDAC11 enzyme activity (%)
T2 sequence (Q96DB2 1-347): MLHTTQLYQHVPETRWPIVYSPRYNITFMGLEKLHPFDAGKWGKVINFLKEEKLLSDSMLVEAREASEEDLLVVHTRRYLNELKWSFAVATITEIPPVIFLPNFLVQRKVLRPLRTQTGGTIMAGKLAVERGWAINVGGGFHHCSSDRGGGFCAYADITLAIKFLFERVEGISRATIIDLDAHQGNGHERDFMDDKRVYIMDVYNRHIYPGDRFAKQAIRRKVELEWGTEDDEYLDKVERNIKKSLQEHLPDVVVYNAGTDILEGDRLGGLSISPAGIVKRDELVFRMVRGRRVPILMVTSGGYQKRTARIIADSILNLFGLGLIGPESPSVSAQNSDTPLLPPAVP
Procedure: as §3

Sequence of HDAC9 (Q9UKV0 whole entry): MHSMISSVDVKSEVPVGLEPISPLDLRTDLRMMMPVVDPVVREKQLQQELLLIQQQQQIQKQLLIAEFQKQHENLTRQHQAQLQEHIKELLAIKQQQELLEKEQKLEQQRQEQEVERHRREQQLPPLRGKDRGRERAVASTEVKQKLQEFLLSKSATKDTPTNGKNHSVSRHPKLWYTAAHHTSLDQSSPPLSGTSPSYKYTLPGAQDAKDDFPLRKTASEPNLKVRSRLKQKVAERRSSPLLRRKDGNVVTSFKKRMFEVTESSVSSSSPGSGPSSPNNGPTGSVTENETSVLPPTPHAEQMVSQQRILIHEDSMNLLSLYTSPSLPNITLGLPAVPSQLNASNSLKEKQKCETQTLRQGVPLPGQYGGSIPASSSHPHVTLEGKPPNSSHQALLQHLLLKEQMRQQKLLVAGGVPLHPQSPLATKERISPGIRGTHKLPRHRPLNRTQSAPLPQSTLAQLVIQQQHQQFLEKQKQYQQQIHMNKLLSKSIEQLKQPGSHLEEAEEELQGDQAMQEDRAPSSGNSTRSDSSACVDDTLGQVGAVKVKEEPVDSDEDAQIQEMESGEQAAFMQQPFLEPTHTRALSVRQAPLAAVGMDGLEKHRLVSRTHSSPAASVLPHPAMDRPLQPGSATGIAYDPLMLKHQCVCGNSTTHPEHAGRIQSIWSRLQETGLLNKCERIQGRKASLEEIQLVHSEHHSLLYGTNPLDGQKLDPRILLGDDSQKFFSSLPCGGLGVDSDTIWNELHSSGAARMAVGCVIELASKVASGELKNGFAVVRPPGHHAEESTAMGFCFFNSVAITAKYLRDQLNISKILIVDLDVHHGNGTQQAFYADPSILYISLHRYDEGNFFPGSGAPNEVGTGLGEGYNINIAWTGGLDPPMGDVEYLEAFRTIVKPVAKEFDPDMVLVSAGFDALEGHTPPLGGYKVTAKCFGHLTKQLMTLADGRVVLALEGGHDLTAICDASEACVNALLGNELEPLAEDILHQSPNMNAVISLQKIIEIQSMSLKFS
Sequence of HDAC4 (P56524 whole entry): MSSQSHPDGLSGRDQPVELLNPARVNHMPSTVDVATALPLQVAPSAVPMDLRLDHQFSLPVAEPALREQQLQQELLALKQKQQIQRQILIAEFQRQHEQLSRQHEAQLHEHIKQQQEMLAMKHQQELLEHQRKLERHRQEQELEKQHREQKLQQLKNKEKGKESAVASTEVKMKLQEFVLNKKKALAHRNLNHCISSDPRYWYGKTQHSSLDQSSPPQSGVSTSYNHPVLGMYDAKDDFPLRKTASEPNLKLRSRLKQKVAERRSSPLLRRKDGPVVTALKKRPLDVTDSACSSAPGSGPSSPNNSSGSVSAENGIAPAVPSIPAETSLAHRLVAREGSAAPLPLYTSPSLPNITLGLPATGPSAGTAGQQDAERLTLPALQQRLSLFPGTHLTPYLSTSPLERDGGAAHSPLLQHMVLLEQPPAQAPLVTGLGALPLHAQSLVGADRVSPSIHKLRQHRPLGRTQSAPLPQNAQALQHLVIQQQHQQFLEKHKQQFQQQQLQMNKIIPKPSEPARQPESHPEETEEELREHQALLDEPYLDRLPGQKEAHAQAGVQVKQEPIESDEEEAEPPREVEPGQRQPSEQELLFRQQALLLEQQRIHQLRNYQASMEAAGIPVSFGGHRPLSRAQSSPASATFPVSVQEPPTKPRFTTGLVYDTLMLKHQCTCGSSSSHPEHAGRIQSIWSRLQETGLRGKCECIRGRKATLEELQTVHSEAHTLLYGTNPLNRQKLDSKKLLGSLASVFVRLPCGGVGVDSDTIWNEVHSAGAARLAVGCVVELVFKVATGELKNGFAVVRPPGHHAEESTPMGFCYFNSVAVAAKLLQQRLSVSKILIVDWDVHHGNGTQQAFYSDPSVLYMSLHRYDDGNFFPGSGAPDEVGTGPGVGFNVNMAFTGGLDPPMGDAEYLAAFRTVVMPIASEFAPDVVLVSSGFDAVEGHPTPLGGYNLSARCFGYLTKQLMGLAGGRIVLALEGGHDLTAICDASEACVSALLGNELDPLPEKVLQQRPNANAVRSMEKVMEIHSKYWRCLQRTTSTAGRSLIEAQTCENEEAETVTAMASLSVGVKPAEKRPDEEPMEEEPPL

Cc1cc2nc(C(=O)NCCc3c[nH]c4ccc(O)cc34)c(=O)n(C[C@H](O)[C@H](O)[C@H](O)CO)c2cc1C [Example 27, N-(2-(5-hydroxy-1H-indol-3-yl)ethyl)-6,7-dimethyl-3-oxo-4-((2S,3S,4R)-2,3,4,5-tetrahydroxypentyl)-3,4-dihydroquinoxaline-2-carboxamide]
RFU (%) (HDAC8 [1]; compound final concentration 10 µM, HDAC substrate 2A 20 µM, positive control (1% DMSO) set to 100, lower = more inhibition): 7.62% | inhibitory activity against HDAC8 (HDAC8 [1]; result in words, summary of Table 2, 10 µM): inhibitory activity similar to TSA or SAHA | remaining activity at 10 µM (HDAC8 [2]; final concentration 10 µM, HDAC substrate 2A 20 µM, positive control (1% DMSO) set to 100, read-out: HDAC8 enzyme activity (%)): 14.1% | selective inhibitory effect on HDAC8 (HDAC8 [2]; result in words, HDAC8 versus HDAC1, 2, 3, 4, 6, 7, 9, 10, 11, summary of Table 3): selective and excellent inhibitory activity only against HDAC8 | cancer cell viability inhibition rate ([3]; compared with PCI-34051, FIG. 1): superior to that of PCI-34051 | cell viability ([3]; various concentrations, 24 hours and 48 hours, FIG. 1): effectively reduced the viability of prostate cancer cells in a concentration- and time-dependent manner | cell viability (Liver cancer cells Huh-7): concentration-dependent inhibition of cancer cell viability | tumor volume (PC-3 cell lines; 50 mg/kg orally once a day for 12 times, up to day 14, *p<0.05 compared with vehicle, FIG. 2): significantly reduced tumor volume growth rate compared to group 1 | tumor weight (PC-3 cell lines; 50 mg/kg orally once a day, tumor removed on day 12, ***p<0.0005 compared with vehicle, FIG. 3): vehicle administration group (group 1) had a significantly higher tumor weight | body weight of the mice [4]: no rapid weight loss was confirmed | tumor volume (Huh-7 cell lines; 50 mg/kg once a day for 12 times, until day 15, **p<0.005 compared with vehicle, FIG. 7A): tumor growth inhibitory effect | tumor weight (Huh-7 cell lines; 50 mg/kg, tumor removed on day 15, ***p<0.0005 compared with vehicle, FIGS. 7B and 7C): tumor weight of the vehicle group was significantly higher | body weight [5]: No rapid weight loss was observed | remaining activity at 10 µM (HDAC4): 98.2% | remaining activity at 10 µM (HDAC9): 66.5% | remaining activity at 10 µM (HDAC11): 97.3%
